Data from BindingDB's records for doi:10.1016/S1074-5521(99)80084-2 (Institute of Genetics and Molecular and Cellular Biology …, 1999).
pKi: −log10 of the molar value.

How the values were obtained:
[1] = target: T1, Retinoic acid receptor alpha [200-419] (Homo sapiens, UniProt P10276); assay: Competitive Assay; conditions: pH 8; 4 °C
T1 construct: 200-419
T1 sequence (P10276 whole entry): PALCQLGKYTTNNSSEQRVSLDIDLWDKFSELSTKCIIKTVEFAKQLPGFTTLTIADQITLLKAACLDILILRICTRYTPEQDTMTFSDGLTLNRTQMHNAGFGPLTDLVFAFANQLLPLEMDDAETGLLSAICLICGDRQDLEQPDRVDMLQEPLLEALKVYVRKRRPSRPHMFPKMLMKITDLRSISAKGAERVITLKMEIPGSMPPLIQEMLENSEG
Protocol: (§1) Competitive assay were perform with 5nM tritiated all-trans retinoic acid (t-RA; 5nM) with or without 100-fold excess of non-radioactive t-RA (500nM).

[2] = target: T2, Retinoic acid receptor alpha [200-419]/gamma [183-417] (Homo sapiens, UniProt P10276+P13631); assay: Competitive Assay; conditions: pH 8; 4 °C
T2 construct: 200-419; 183-417
T2 sequence (P13631 whole entry): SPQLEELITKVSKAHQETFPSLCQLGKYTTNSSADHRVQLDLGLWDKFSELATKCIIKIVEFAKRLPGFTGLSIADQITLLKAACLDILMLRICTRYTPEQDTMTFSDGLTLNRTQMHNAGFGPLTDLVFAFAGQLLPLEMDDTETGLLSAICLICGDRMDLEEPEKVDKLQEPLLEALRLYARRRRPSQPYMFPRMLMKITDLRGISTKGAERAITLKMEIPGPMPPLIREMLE
T2 sequence (P10276 whole entry): T1 sequence (P10276 whole entry)
Protocol: as §1

| pKi [1] | pKi [2] | Structure (SMILES) |
| --- | --- | --- |
| 8.70 | 9.00 | CC1(C)C(=O)C(C)(C)c2cc(C(=O)Nc3ccc(C(=O)O)cc3)ccc21 [BMS753] |
| 8.60 | 9.00 | CC1(C)CC=C(c2cnc3ccccc3c2)c2cc(C(=O)Nc3ccc(C(=O)O)cc3)ccc21 [BMS614] |
